Assay results published in publication PMC3224971, “An exo-cell assay for examining real-time γ-secretase activity and inhibition” (Molecular Neurodegeneration, 2009).

How the values were obtained:
[1] = target: T1, γ-secretase (Mus musculus, UniProt P49769); assay: cell-based γ-secretase assay in N2A cells stably overexpressing APP; conditions: 24 hours with GSI, Aβ 40-site cleavage, ECL detection
Method: The cell-based assay utilized N2A mouse neuroblastoma cells that stably overexpress the amyloid precursor protein. These were incubated with γ-secretase inhibitors in a final concentration of 1% DMSO for 24 hours. Following incubation, the supernatant was removed from the cells and assayed for Aβ 40-site cleaved APP product using ruthenylated G2-10* antibody as well as biotinylated 4G8 antibody.

[2] = target: T2, γ-secretase (Homo sapiens, UniProt P49768); assay: exo-cell γ-secretase assay in HeLa cells; format: cell-based; conditions: HeLa cells incubated simultaneously with GSI, 1 μM Sb4 and 0.25% CHAPSO, 2.5 hours; ECL detection
Method: (§1) Cells were seeded at their indicated concentration in 96-well plates and allowed to attach overnight (Fig. 1c). The next day, media was removed and cells were washed once with PBS. Fresh media was then added containing 0.25% CHAPSO detergent, Sb4 substrate to a final concentration of 1 μM, and 1% DMSO or γ-secretase inhibitor. This was incubated for 2.5 hours at 37°C. Media was removed and cell debris was pelleted from this media for 5 min. at 3,500 rpm's. Supernatant was then added to ruthenylated G2-10* antibody that recognizes cleaved product, but not uncleaved substrate. This was incubated for an additional 2 hours at room temperature. Finally, magnetic streptavidin beads were added to a final concentration of 80 μg/ml and incubated for 30 min. at room temperature. Assay buffer was added to the samples and γ-secretase-mediated cleavage of substrate was monitored using electrochemiluminescence (ECL). Protocol for HTRF detection can be found below.
Homogeneous time-resolved fluorescence (HTRF) was also incorporated for the exo-cell assay detection of cleaved substrate. […] Exo-cell supernatent and HTRF detection mix were incubated together for 5 hours in a 384-well plate and then activity was measured by stimulating at 337 nm and reading at 665 nm.

[3] = target: T2, γ-secretase; assay: extended exo-cell γ-secretase assay in HeLa cells; format: cell-based
Method: as §1
Conversely, an extended exo-cell assay was performed whereby cells were seeded and allowed to attach overnight as previously described. However, the next day media was removed and replaced with fresh media containing 1% DMSO or γ-secretase inhibitor. These were incubated for 24 hours at 37°C. Following this incubation, the cells were washed once with PBS and fresh media containing detergent and substrate were added. […]

[4] = system: A20 mouse lymphoma cells; assay: lymphoma proliferation assay ([3H]thymidine incorporation); format: cell-based; conditions: for inhibition of cellular proliferation (in words): 48 hours of treatment
Method: A20 mouse lymphoma cells were seeded in a 96-well plate at a concentration of 5 × 10^5 cells/ml in 100 μl RPMI media containing 2% fetal bovine serum. An additional 100 μl of media containing DMSO or γ-secretase inhibitor was added and incubated for 48 hours at 37°C. After this incubation, the cells were incubated for 5 hours with 2 μCi/ml [^3H]thymidine at 37°C. Proliferative response was then evaluated by harvesting the tritiated DNA from cells using a Skatron cell harvester and proliferation assessed as a function of [^3H]thymidine incorporation measured on a β-counter.

[5] = target: T2, γ-secretase; assay: in vitro γ-secretase assay with Sb4 substrate and solubilized γ-secretase; format: biochemical; conditions: Sb4 substrate, 0.25% CHAPSO, solubilized γ-secretase, 2.5 hours at 37°C, ECL detection
Method: The in vitro and cell-based γ-secretase assays were performed similarly as previously described. Briefly, the recombinant Sb4 substrate was incubated for 2.5 hours at 37°C in pH 7.0 PIPES buffer in the presence of 0.25% CHAPSO detergent and solubilized γ-secretase at a final concentration of 40 ng/ul. The detection of cleaved substrate was determined using ruthenylated G2-10* antibody. Due to biotinylation of the Sb4 substrate, this eliminated the additional use of 6E10 biotinylated antibody from the original protocol.

[6] = target: T1, γ-secretase; assay: real-time exo-cell γ-secretase assay in A20 mouse lymphoma cells; format: cell-based; conditions: 300 nM, 48 hours treatment
Method: Figure 4 Examination of real-time γ-secretase activity in A20 lymphoma and in primary B-CLL patient samples. (a) Correlation between real-time inhibition of γ-secretase activity and GSI-mediated inhibition of A20 mouse lymphoma proliferation. Two 96-well plates were seeded with 50,000 A20 mouse lymphoma cells per well in 100 μl RPMI media. To each of these plates an additional 100 μl of media was added containing DMSO or GSI-34 to indicated final concentration. These plates were incubated for 48 hours at 37°C. Following this incubation, one plate was used in a real-time exo-cell assay to quantitate the real-time inhibition of γ-secretase in A20 cells. Briefly, A20 cells were pelleted and media removed. Fresh media containing 1 μM Sb4 substrate and 0.25% CHAPSO detergent were added and the exo-cell assay was performed. For each assay point n = 4, and s.d. is plotted. Additionally, to the other 96-well plate 2 μCi/ml [^3H]thymidine was incubated with the cells for 5 hours. Following 5-hour incubation at 37°C, the amount of tritiated DNA was quantified on a β-counter. For each proliferation assay point n = 10, and s.d. is plotted. (b) Real-time γ-secretase activity in primary B-CLL patient samples. […] Assay buffer was added to the samples and γ-secretase-mediated cleavage of substrate was monitored using electrochemiluminescence (ECL). […]

SMILES	IC50 [1] [nM]	IC50 [2] [nM]	IC50 ([3]; HeLa cells incubated with GSI for 24 hours, washed, then Sb4 and CHAPSO, ECL detection) [nM]	inhibition of cellular proliferation (in words) [4]	IC50 [5] [nM]	inhibition of γ-secretase activity (in words) ([3]; HeLa cells treated 24 hours with varying concentrations)	inhibition at 0.3 µM [6] [%]	reduction of cellular proliferation ([4]; 300 nM, 48 hours treatment) [%]
CC(NC(=O)Cc1cc(F)cc(F)c1)C(=O)NC1N=C(c2ccccc2)c2ccccc2N(C)C1=O (stereo not shown) [Compound E]	4.6	3.8	2.8	able to inhibit cellular proliferation				
O=C(COc1ccc(F)cc1)Nc1ccc2c(c1)CC1CCC(C2)C1NS(=O)(=O)c1ccc(Cl)s1 (stereo not shown) [GSI-34]				able to inhibit cellular proliferation	1	Dose-dependent inhibition	~80	30
CC(C)C[C@H](NC(=O)[C@H](Cc1ccccc1)C[C@@H](O)[C@H](Cc1ccccc1)NC(=O)OC(C)(C)C)C(=O)N[C@@H](Cc1ccccc1)C(N)=O [L-685,458]				able to inhibit cellular proliferation				
